Experimental data published in patent publication US10183007B2, “Method of producing proanthocyanidin oligomer” (Nagasaki University, priority 2005, dated 2019).

What was measured:
[1] = DPPH radical-scavenging activity assay; format: biochemical; settings: test concentration not given
Experimental: With respect to each sample, 1,1-diphenyl-2-picrylhydrazyl (DPPH) radical-scavenging activity was evaluated as follows. In a 96-hole microplate, 100 μL of DPPH solution (60 μM ethanol solution) was placed. Added thereto was 100 μL of ethanol solution of test sample or 100 μL of ethanol as control, and the mixture was gently mixed together and left standing at room temperature for 30 minutes. Then, absorbance at 520 nm was measured. The DPPH radical-scavenging activity was calculated by the following formula and 50% effective concentration (EC50) was calculated from The DPPH radical-scavenging activity value of test sample gradually diluted and its concentration. DPPH radical-scavenging activity(%)=[…] [Formula 1]
As substance to be compared with Invention Substance B, epicatechin and phloroglucinol (PL) were used. As substance to be compared with Invention Substances C to E, grape seed polyphenol polymer (GP) was used.

[2] = TEAC (Trolox Equivalent Antioxidant Capacity) method; format: biochemical
Experimental: TEAC (Trolox Equivalent Antioxidant Capacity) method is a method of relatively evaluating antioxidative strength by converting antioxidative activity of a compound into antioxidative activity of Trolox which is a α-tocopherol derivative and the method is widely employed as an index of antioxidative activity.
To 36 μL of 70 μM metmyoglobin solution, 300 μL of ABTS solution and […] of 5 mM phosphate buffered saline were added. Subsequently, sample solution or 1.25 mM Yrolox solution was added thereto and gently mixed together for 5 minutes at 0° C. After 167 μL of 450 μM hydrogen peroxide solution was added thereto and mixed for 10 seconds, reaction was allowed to proceed for 5 minutes at room temperature. Absorbance at 734 nm was measured and the absorbance ratio between the sample and the Trolox solution was calculated to serve as TEAC value of the sample against […] Trolox.
As substance to be compared with Invention Substances C to E, grape seed polyphenol polymer was used.

[3] = FIG. 8, comparison for Invention Substance B
[4] = FIG. 11, TEAC value against Trolox

Oc1ccc(/C=C/c2cc(O)c([C@H]3c4c(O)cc(O)cc4O[C@H](c4ccc(O)c(O)c4)[C@@H]3O)c(O)c2)cc1 [Invention Substance A, 4b-(4-resveratroyl)-(−)-epicatechin]
DPPH activity ([1]; FIG. 7, comparison for Invention Substance A): 76.1%
TEAC activity ([2]; FIG. 10, TEAC value against 1.00 mM Trolox): 1.33 mM

Oc1cc(O)c([C@H]2c3c(O)cc(O)cc3O[C@H](c3ccc(O)c(O)c3)[C@@H]2O)c(O)c1 [Invention Substance B, 4-(2-phloroglucinol)-(−)-epicatechin]
DPPH activity [1, 3]: significantly high scavenging activity as compared with both of the substances
TEAC activity [2, 4]: 1.44 mM

Oc1cc(O)cc(O)c1 [phloroglucinol, reference compound]
DPPH activity [1, 3]: little such activity
TEAC activity [2, 4]: 0.52 mM
